In patent US5958947A, “DNA-affinic hypoxia selective cytotoxins” (priority 1996, dated 1999):
Where “and” joins values, the source holds several entries; their conditions need not be identical. Equal values may be shown once. Entries after “also recorded” stand apart in the source; their conditions may differ. Where a name gives a salt, the structure may show the parent alone. Read-outs that look alike come from different tables or passages of the source.

Columns and labels:
[1] = Water solubility
[2] = Partition coefficient in octanol/water; type: physicochemical
Procedure: The partition coefficient of the hypoxia selective cytotoxins of the present invention were determined by the method of T. Fujita et al., J. Am. Chem. Soc., 86, 5175-5180 (1964), incorporated herein by reference.

[3] = target: T1, calf thymus Topo I (Bos taurus, UniProt F1MN93); experiment: Topoisomerase I interaction (relaxation of supercoiled DNA); type: biochemical; settings: for IC100: 0.5 h; for IC50: Topo I inhibition (50%)-dose, Topo I-induced relaxation of supercoiled DNA
T1 construct: purchased TopoGEN, Inc., Columbus, Ohio; host or cells: calf thymus
T1 sequence (F1MN93 1-767): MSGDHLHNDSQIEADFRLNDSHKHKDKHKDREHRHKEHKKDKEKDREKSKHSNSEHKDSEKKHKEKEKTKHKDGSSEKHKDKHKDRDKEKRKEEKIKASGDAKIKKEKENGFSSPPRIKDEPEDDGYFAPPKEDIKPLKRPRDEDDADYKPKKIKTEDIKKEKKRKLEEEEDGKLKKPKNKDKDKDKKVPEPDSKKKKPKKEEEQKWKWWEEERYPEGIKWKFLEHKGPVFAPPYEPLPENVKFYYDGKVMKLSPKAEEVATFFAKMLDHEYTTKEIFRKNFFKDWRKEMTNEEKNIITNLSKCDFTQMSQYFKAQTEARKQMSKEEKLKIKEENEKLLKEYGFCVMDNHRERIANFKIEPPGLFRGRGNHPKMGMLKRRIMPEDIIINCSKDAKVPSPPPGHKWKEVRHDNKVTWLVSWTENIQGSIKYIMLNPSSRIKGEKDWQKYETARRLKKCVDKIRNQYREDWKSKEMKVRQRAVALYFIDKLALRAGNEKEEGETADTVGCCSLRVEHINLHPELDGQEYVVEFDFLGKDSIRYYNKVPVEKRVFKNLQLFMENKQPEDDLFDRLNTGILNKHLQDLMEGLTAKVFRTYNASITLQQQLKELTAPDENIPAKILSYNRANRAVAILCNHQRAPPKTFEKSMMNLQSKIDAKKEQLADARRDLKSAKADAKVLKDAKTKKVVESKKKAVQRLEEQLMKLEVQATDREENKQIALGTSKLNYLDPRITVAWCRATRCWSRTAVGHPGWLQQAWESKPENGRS
Procedure: (§1) In particular, a Topo I drug screening kit (TopoGEN, Inc., Columbus, Ohio) was used to assay the topoisomerase I THNLA-1 interaction. […] Camptothecin is a Topoisomerase I poison used as an anticancer drug. Camptothecin stabilizes the Topo I-DNA cleavable complex, and therefore prevents the resealing of DNA by Topo-I.
(§2) Individual reaction mixtures were heated for 30 minutes at 37° C. on a heating block, and then 2 μl of 10% SDS - proteinase K solution was added to each reaction mixture. The resulting reaction mixtures then were heated for an additional 30 minutes at 37° C. The reaction mixtures in a loading buffer were extracted with CHCl3 prior to submarine electrophoresis on a 1% agarose gel. The DNA bands were observed visually by staining with ethidium bromide (0.5 μg/ml).

[4] = tested on: calf thymus Topo I; experiment: as above; type: biochemical; settings: 800 μM, compound alone
Procedure: as §1, §2

[5] = tested on: EMT6 tumors; experiment: In vivo radiosensitization of EMT6 tumors; design: species or system balb mice; settings: 0.103 mmol/g intraperitoneally, 20 Gy
[6] = Toxicity study in balb mice; type: in vivo
[7] = tested on: V79 cells; experiment: Drug uptake: intracellular and extracellular concentrations in V79 cells; type: cell-based, Chinese hamster
Procedure: Also, uptake measurements at various times under both aerobic and hypoxic conditions were made. Afterwards, the samples were pelleted by centrifuging for 6 minutes at 0° C. A small volume of the supernatant (200 μl) was combined with 9 equal volumes (1.8 ml) of acetonitrile and the remaining supernatant was discarded. The samples were centrifuged again to remove residual supernatant and the pellets were lysed with 90 μl water and deproteinized with 0.9 ml acetonitrile. After centrifugation and filtration, all samples were stored at -70° C. until a UV spectroscopic analysis was made at two different wave lengths: 330 nm (nanometers) (absorption of the nitro-group) and 244 nm (λmax). […] Mean intracellular concentration of drug was calculated using a value of 810 fl as an intracellular water content of log-phase cells.
Concentrations were determined by UV spectrophotometry at 330 nm. The plotted points represent results from two experiments, in triplicate.

[8] = tested on: V79 cells; experiment: Drug uptake in the presence of ammonium chloride; type: cell-based, Chinese hamster; settings: aerobic V79 cells, 60 μM input, 50 mM NH4Cl (stated for THNLA-1)
Procedure: Uptake measurements in the presence of the lysosomotropic agent ammonium chloride (NH4 Cl) also were performed in a manner as previously described.
Concentrations were determined by UV spectrophotometry at 330 nm. The plotted points represent the mean of two experiments.

[9] = tested on: OVCAR cells; experiment: Chemosensitization of OVCAR cells to L-PAM and cis-DDP; type: cell-based; settings: OVCAR cells resistant to L-PAM and cis-DDP
From the text: A longer hypoxic preexposure time and a lower sensitizer dose are preferred over a shorter hypoxic preexposure time and a higher sensitizer dose. […] OVCAR cells are resistant to L-PAM and cis-DDP.

O=[N+]([O-])c1nccn1CCCNc1c2c(nc3ccccc13)CCSC2 [S-THNLA-1, 10-[3-(2-nitroimidazolyl)propylamino]-3,4-dihydro-1-H-thiopyrano[4,3-b]quinoline hydrochloride]
solubility [1]: ~9.5 mM | Partition coefficient in octanol/water: PCo/w ([2]; hydrochloride): 0.41 and 0.40 | IC100 ([3]; read-out: concentration for complete inhibition of Topo I): ~800 µM | IC50 [3]: ~800 µM | formation of nicked DNA with Topo I ([3]; in Topo I test): some nicked DNA also was observed | formation of nicked DNA by compound alone [4]: caused the formation of some nicked DNA

Cl.O=[N+]([O-])c1nccn1CCCNc1c2c(nc3ccccc13)CCCC2 [THNLA-1, 9-[3-(2-nitro-1-imidazolyl)propylamino]-1,2,3,4-tetrahydroacridine hydrochloride]
solubility [1]: ~12 mM | administration time before irradiation for maximum radiosensitization [5]: at least one hour before irradiation | radiosensitizing effect in vivo ([5]; EMT6 tumors in balb mice, hydrochloride): synergistic effect; also recorded: potent radiosensitizing effect; also recorded: enhanced the effects of 20 Gy radiation in EMT6 tumors to a similar degree as 2 mmol/g of etanidazole | nontoxic concentration [6]: at least 0.129 mmol/g | Partition coefficient in octanol/water: PCo/w [2]: 0.14 | logP ([2]; read-out: Partition coefficient in octanol/water: PCo/w (converted)): -0.854 | Ci over 15, 30 and 60 minutes, aerobic ([7]; 20 μM, aerobic V79 cells, 37° C.): basically unchanged | Ci over time, hypoxic ([7]; 20 μM, hypoxic V79 cells, 37° C.): a decrease of Ci over time | Ci compared with Ce ([7]; V79 cells, 37° C., input 0 to 500 μM or 20 μM): substantially greater | aerobic mean uptake factor (Ci/Ce) compared to NLA-1 ([7]; aerobic V79 cells): did not result in an increase of the aerobic mean uptake factor | input concentration at which the uptake factor (Ci/Ce) reaches a maximum ([7]; aerobic, 30 minutes, 37° C.): about 100 μM | factor of decrease of Ci in the presence of NH4Cl [8]: about 3 | Topo I-dependent single-stranded DNA cleavage [3]: not observed | IC100 ([3]; read-out: complete inhibition of Topo I not observed up to): > 1000 µM | IC50 [3]: ~600 µM and 600 µM | inhibition of Topo I-induced relaxation ([3]; supercoiled DNA): inhibits Topo I-induced relaxation of supercoiled DNA, but at significantly higher concentrations than NLA-type compounds | concentration at which inhibition of Topo I starts ([3]; supercoiled DNA relaxation): 100 µM | chemosensitization to L-PAM and cis-DDP [9]: effectively chemosensitizes OVCAR cells
